Source: ChEMBL document CHEMBL4017472, “New modified 2-aminobenzimidazole nucleosides: Synthesis and evaluation of their activity against herpes simplex virus type 1” (Bioorg Med Chem Lett, 2017)

Columns and labels:
[1] = tested on: Human alphaherpesvirus 1; test: Antiviral activity against acyclovir and cidofovir-resistant HSV-1 L2 infected in African green monkey Vero E6 cells assessed as reduction in virus-induced cytopathic effect; assay type: functional; details: Human alphaherpesvirus 1, L2, Vero C1008
[2] = tested on: Human alphaherpesvirus 1; test: Antiviral activity against foscarnet-resistant HSV-1 F+ infected in African green monkey Vero E6 cells assessed as viral reproduction at 207 uM measured after 48 hrs post infection by gentian violet staining based plaque reduction assay (reference value: 6.6 +/- 0.1 log10PFU/ml); assay type: functional, Vero C1008
[3] = tested on: Human alphaherpesvirus 1; test: Antiviral activity against acyclovir and foscarnet-resistant HSV-1 L2 infected in African green monkey Vero E6 cells assessed as viral reproduction at 415 uM measured after 48 hrs post infection by gentian violet staining based plaque reduction assay (reference value: 5.92 +/- 0.11 log10PFU/ml); assay type: functional, Vero C1008
[4] = tested on: Human alphaherpesvirus 1; test: Antiviral activity against HSV-1 L2/Rp-ACV/2 infected in African green monkey Vero E6 cells assessed as viral reproduction at 104 uM measured after 48 hrs post infection by gentian violet staining based plaque reduction assay (reference value: 6.05 +/- 0.1 log10PFU/ml); assay type: functional, Vero C1008
[5] = tested on: Human alphaherpesvirus 1; test: Antiviral activity against HSV-1 L2/Rp-ACV/2 infected in African green monkey Vero E6 cells assessed as viral reproduction at 52 uM measured after 48 hrs post infection by gentian violet staining based plaque reduction assay (reference value: 6.05 +/- 0.1 log10PFU/ml); assay type: functional, Vero C1008
[6] = tested on: Human alphaherpesvirus 1; test: Antiviral activity against acyclovir and foscarnet-resistant HSV-1 L2 infected in African green monkey Vero E6 cells assessed as inhibition of viral reproduction measured after 48 hrs post infection by gentian violet staining based plaque reduction assay; assay type: functional; details: Vero C1008
[7] = tested on: Human alphaherpesvirus 1; test: Antiviral activity against HSV-1 L2 infected in African green monkey Vero E6 cells assessed as viral reproduction at 207 uM measured after 48 hrs post infection by gentian violet staining based plaque reduction assay (reference value: 6.91 +/- 0.05 log10PFU/ml); assay type: functional, Vero C1008
[8] = tested on: Human alphaherpesvirus 1; test: Antiviral activity against foscarnet-resistant HSV-1 F+ infected in African green monkey Vero E6 cells assessed as viral reproduction at 415 uM measured after 48 hrs post infection by gentian violet staining based plaque reduction assay (reference value: 6.6 +/- 0.1 log10PFU/ml); assay type: functional, Vero C1008
[9] = Selectivity index, ratio of MCC for African green monkey Vero E6 cells to IC50 for HSV-1 L2/Rp-ACV/2 infected in African green monkey Vero E6 cells; parameters: species or system Vero C1008
[10] = tested on: Human alphaherpesvirus 1; test: Antiviral activity against HSV-1 L2/Rp-ACV/2 infected in African green monkey Vero E6 cells assessed as viral reproduction at 415 uM measured after 48 hrs post infection by gentian violet staining based plaque reduction assay (reference value: 6.05 +/- 0.1 log10PFU/ml); assay type: functional, Vero C1008
[11] = tested on: Human alphaherpesvirus 1; test: Antiviral activity against acyclovir and cidofovir-resistant HSV-1 L2 infected in African green monkey Vero E6 cells assessed as viral reproduction at 207 uM measured after 48 hrs post infection by gentian violet staining based plaque reduction assay (reference value: 6.52 +/- 0.11 log10PFU/ml); assay type: functional, Vero C1008
[12] = tested on: Human alphaherpesvirus 1; test: Antiviral activity against acyclovir and foscarnet-resistant HSV-1 L2 infected in African green monkey Vero E6 cells assessed as reduction in virus-induced cytopathic effect; assay type: functional; details: Human alphaherpesvirus 1, L2, Vero C1008
[13] = tested on: Human alphaherpesvirus 1; test: Antiviral activity against HSV-1 L2 infected in African green monkey Vero E6 cells assessed as inhibition of viral reproduction measured after 48 hrs post infection by gentian violet staining based plaque reduction assay; assay type: functional; details: Vero C1008
[14] = tested on: Human alphaherpesvirus 1; test: Antiviral activity against acyclovir and cidofovir-resistant HSV-1 L2 infected in African green monkey Vero E6 cells assessed as inhibition of viral reproduction measured after 48 hrs post infection by gentian violet staining based plaque reduction assay; assay type: functional; details: Vero C1008
[15] = tested on: Human alphaherpesvirus 1; test: Antiviral activity against foscarnet-resistant HSV-1 F+ infected in African green monkey Vero E6 cells assessed as inhibition of viral reproduction measured after 48 hrs post infection by gentian violet staining based plaque reduction assay; assay type: functional; details: Vero C1008
[16] = tested on: Human alphaherpesvirus 1; test: Potency index, ratio of ribavirin IC50 to compound IC50 for HSV-1 L2 infected in African green monkey Vero E6 cells; assay type: functional, Vero C1008
[17] = tested on: Human alphaherpesvirus 1; test: Antiviral activity against HSV-1 L2 infected in African green monkey Vero E6 cells assessed as viral reproduction at 104 uM measured after 48 hrs post infection by gentian violet staining based plaque reduction assay (reference value: 6.91 +/- 0.05 log10PFU/ml); assay type: functional, Vero C1008
[18] = tested on: Human alphaherpesvirus 1; test: Potency index, ratio of maribavir IC50 to compound IC50 for HSV-1 L2 infected in African green monkey Vero E6 cells; assay type: functional, Vero C1008
[19] = tested on: Human alphaherpesvirus 1; test: Antiviral activity against acyclovir and foscarnet-resistant HSV-1 L2 infected in African green monkey Vero E6 cells assessed as viral reproduction at 104 uM measured after 48 hrs post infection by gentian violet staining based plaque reduction assay (reference value: 5.92 +/- 0.11 log10PFU/ml); assay type: functional, Vero C1008
[20] = Selectivity index, ratio of MCC for African green monkey Vero E6 cells to IC50 for HSV-1 L2 infected in African green monkey Vero E6 cells; parameters: species or system Vero C1008
[21] = Selectivity index, ratio of MCC for African green monkey Vero E6 cells to IC50 for HSV-1 F+ infected in African green monkey Vero E6 cells; parameters: species or system Vero C1008
[22] = tested on: Human alphaherpesvirus 1; test: Antiviral activity against acyclovir and foscarnet-resistant HSV-1 L2 infected in African green monkey Vero E6 cells assessed as viral reproduction at 52 uM measured after 48 hrs post infection by gentian violet staining based plaque reduction assay (reference value: 5.92 +/- 0.11 log10PFU/ml); assay type: functional, Vero C1008
[23] = tested on: Human alphaherpesvirus 1; test: Antiviral activity against HSV-1 L2 infected in African green monkey Vero E6 cells assessed as viral reproduction at 415 uM measured after 48 hrs post infection by gentian violet staining based plaque reduction assay (reference value: 6.91 +/- 0.05 log10PFU/ml); assay type: functional, Vero C1008
[24] = tested on: Human alphaherpesvirus 1; test: Antiviral activity against foscarnet-resistant HSV-1 F+ infected in African green monkey Vero E6 cells assessed as reduction in virus-induced cytopathic effect; assay type: functional; details: Human alphaherpesvirus 1, F+, Vero C1008
[25] = tested on: Human alphaherpesvirus 1; test: Antiviral activity against HSV-1 L2 infected in African green monkey Vero E6 cells assessed as viral reproduction at 52 uM measured after 48 hrs post infection by gentian violet staining based plaque reduction assay (reference value: 6.91 +/- 0.05 log10PFU/ml); assay type: functional, Vero C1008
[26] = tested on: Human alphaherpesvirus 1; test: Antiviral activity against acyclovir-resistant HSV-1 L2 infected in African green monkey Vero E6 cells assessed as reduction in virus-induced cytopathic effect; assay type: functional; details: Human alphaherpesvirus 1, L2, Vero C1008
[27] = tested on: Human alphaherpesvirus 1; test: Antiviral activity against acyclovir and cidofovir-resistant HSV-1 L2 infected in African green monkey Vero E6 cells assessed as viral reproduction at 104 uM measured after 48 hrs post infection by gentian violet staining based plaque reduction assay (reference value: 6.52 +/- 0.11 log10PFU/ml); assay type: functional, Vero C1008
[28] = tested on: Human alphaherpesvirus 1; test: Antiviral activity against acyclovir-resistant HSV-1 L2 infected in African green monkey Vero E6 cells assessed as viral reproduction at 104 uM measured after 48 hrs post infection by gentian violet staining based plaque reduction assay (reference value: 5.95 +/- 0.03 log10PFU/ml); assay type: functional, Vero C1008
[29] = tested on: Human alphaherpesvirus 1; test: Antiviral activity against HSV-1 L2/Rp-ACV/2 infected in African green monkey Vero E6 cells assessed as viral reproduction at 207 uM measured after 48 hrs post infection by gentian violet staining based plaque reduction assay (reference value: 6.05 +/- 0.1 log10PFU/ml); assay type: functional, Vero C1008

## Nc1nc2cc(F)c(F)cc2n1[C@@H]1O[C@H](CO)[C@@H](O)[C@H]1O
[1]
  IC50: 208 µM
  IC95: 830 µM
[2]
  Activity: 4.87 log10PFU/ml
[3]
  Activity: 4.02 log10PFU/ml
[4]
  Activity: 4.76 log10PFU/ml
[5]
  Activity: 5.32 log10PFU/ml
[6]
  inhibition: Dose-dependent effect
[7]
  Activity: 5.16 log10PFU/ml
[8]
  Activity: 3.9 log10PFU/ml
[9]
  Selectivity Index: >32
[10]
  Activity: 4.06 log10PFU/ml
[11]
  Activity: 5.06 log10PFU/ml
[12]
  IC50: 208 µM
  IC95: 830 µM
[13]
  inhibition: Dose-dependent effect
[14]
  inhibition: Dose-dependent effect
[15]
  inhibition: Dose-dependent effect
[16]
  Ratio IC50: 4
[17]
  Activity: 5.63 log10PFU/ml
[18]
  Ratio IC50: 8
[19]
  Activity: 4.8 log10PFU/ml
[20]
  Selectivity Index: >32
[21]
  Selectivity Index: >16
[22]
  Activity: 5.4 log10PFU/ml
[23]
  Activity: 4.38 log10PFU/ml
[24]
  IC50: 208 µM
  IC95: 830 µM
[25]
  Activity: 6.11 log10PFU/ml
[26]
  IC50: 104 µM
  IC95: 830 µM
[27]
  Activity: 5.39 log10PFU/ml
[28]
  Activity: 4.44 log10PFU/ml
[29]
  Activity: 4.55 log10PFU/ml
